{"source": "patent US20180265867A1", "about": "“NUCLEIC ACID MOLECULES WITH ENHANCED ACTIVITY” (priority 2015, published 2018)", "key": {"GAPDH": {"tested_on": "GAPDH", "assay": "Western blot of GAPDH protein in MG63 cells", "format": "cell-based, human", "conditions": "MG63, 50 nM, at 48 h, no transfection reagent", "procedure": "After 48 hours of transfection, cells were washed twice with ice-cold PBS and lysed in RIPA lysis buffer (50 mM Tris-HCl, pH 8.0, with 150 mM NaCl, 1.0% Igepal CA-630 (NP-40), 0.5% sodiumdeoxycholate, 0.1% SDS, and 1.0% protease inhibitor cocktail from SIGMA-ALDRICH®). Lysates were incubated on ice for 30 minutes and centrifuged at 10,000 rpm for 20 minutes to collect supernatant. Coomassie Plus—The Better Bradford Assay™ Reagent (Thermo Scientific) was used to measure protein concentrations. Thereafter, 20 μg of soluble protein was separated by SDS-PAGE and transferred to polyvinylidene difluoride membrane (Millipore). Primary antibodies against GAPDH (1:1000 dilution), β-catenin (1:1000 dilution; SIGMA-ALDRICH®), β-actin (1:1000; Cell Signaling Technology®) were used to probe the protein bands. Anti-Rabbit-HRP conjugated secondary antibodies (1:3000 dilution; R&D Systems®) were used to detect the primary antibodies, followed by the target protein visualization with EMD Millipore Immobilon™ Western Chemiluminescent HRP Substrate (ECL). […]\nTo further validate our results, we tested the gene knockdown efficiency of another gene CTNNB1 (β-catenin), which is expressed in MG63 cells. We performed a time course experiment (24, 48 and 72 h) by targeting CTNNB1 and GAPDH in MG63 cells and quantified the mRNA and protein levels using qRT-PCR and Western blot experiments respectively (FIG. 8)."}, "CTNNB1 (β-catenin)": {"tested_on": "CTNNB1 (β-catenin)", "assay": "CTNNB1 knockdown time course in MG63 cells by qRT-PCR", "format": "cell-based, human", "conditions": "MG63, 50 nM, 24, 48 and 72 h; β-catenin cpRNA without transfection reagent vs canonical siRNA with transfection reagent", "procedure": "At 70% confluency, a day prior to transfection, the cells were seeded at a density of 35 000 cells in a 24-well cell culture plate to achieve 60-80% confluence at the day of transfection. Cell penetrating siRNAs (cpRNAs) of different lengths were transfected at 50 nM concentrations with Magnet Assisted Transfection (MATra-si) reagent for siRNAs (IBA GmbH, Göttingen, Germany) according to the manufacturers' protocols. Briefly, the siRNA was mixed with MATra-si reagent composed of supermagnetic ironoxide nanoparticles and incubated for 20 min. A complex was formed which was added to the cells to be transfected. A strong magnetic force was applied beneath the cells for 15 min. This forced the complex to be drawn into the cells by the magnetic field, and as a result the siRNA was delivered directly into the cytosol. […]\ncDNA synthesis was performed in triplicate using total RNA reverse transcribed using High Capacity cDNA reverse transcription kit (Applied Biosystems, USA), with non-template control added to ensure a lack of signal in assay background. […] Data from samples with a Ct value equal to or below 35 were further analyzed. Samples were normalized relative to endogenous control and differences in cycle number thresholds were calculated using comparative quantitation 2^−ΔΔcT method (also called the ΔΔCT method), commonly used for analyzing siRNA induced gene knockdown efficiency. […]"}}, "note": "d = 2'-deoxy (DNA); r = 2'-OH (RNA)"}
{"substance": "dT5: GAPDH siRNA, sense SEQ ID NO: 3 with dT5 3′-overhang, antisense SEQ ID NO: 2 with dT2 (sense CCGAGCCACAUCGCUCAGATTTTT; antisense UCUGAGCGAUGUGGCUCGGTT; sense: sugars from the 5' end r19 d5, backbone not given here; antisense: sugars from the 5' end r19 d2, backbone not given here)", "values": [{"measurement": "GAPDH protein level", "setting": "GAPDH", "value": "complete knockout"}, {"measurement": "CTNNB1 mRNA knockdown efficiency over time", "setting": "CTNNB1 (β-catenin)", "value": "higher gene knockdown efficiency for over 72 hrs"}]}
